The values that follow are results of earlier work, collected in US4323647A, “Steric hindrance enzyme immunoassay” (University of Miami, priority 1980, dated 1982).

The series deals with beta-galactosidase isolated from E. coli (Escherichia coli, UniProt P00722). The conditions noted are these: potent competitive inhibitor; Lai, et al., Biophys. Res. Comm. 54: 463-468 (1973).
Sequence of beta-galactosidase isolated from E. coli (P00722 2-1024 limits assumed): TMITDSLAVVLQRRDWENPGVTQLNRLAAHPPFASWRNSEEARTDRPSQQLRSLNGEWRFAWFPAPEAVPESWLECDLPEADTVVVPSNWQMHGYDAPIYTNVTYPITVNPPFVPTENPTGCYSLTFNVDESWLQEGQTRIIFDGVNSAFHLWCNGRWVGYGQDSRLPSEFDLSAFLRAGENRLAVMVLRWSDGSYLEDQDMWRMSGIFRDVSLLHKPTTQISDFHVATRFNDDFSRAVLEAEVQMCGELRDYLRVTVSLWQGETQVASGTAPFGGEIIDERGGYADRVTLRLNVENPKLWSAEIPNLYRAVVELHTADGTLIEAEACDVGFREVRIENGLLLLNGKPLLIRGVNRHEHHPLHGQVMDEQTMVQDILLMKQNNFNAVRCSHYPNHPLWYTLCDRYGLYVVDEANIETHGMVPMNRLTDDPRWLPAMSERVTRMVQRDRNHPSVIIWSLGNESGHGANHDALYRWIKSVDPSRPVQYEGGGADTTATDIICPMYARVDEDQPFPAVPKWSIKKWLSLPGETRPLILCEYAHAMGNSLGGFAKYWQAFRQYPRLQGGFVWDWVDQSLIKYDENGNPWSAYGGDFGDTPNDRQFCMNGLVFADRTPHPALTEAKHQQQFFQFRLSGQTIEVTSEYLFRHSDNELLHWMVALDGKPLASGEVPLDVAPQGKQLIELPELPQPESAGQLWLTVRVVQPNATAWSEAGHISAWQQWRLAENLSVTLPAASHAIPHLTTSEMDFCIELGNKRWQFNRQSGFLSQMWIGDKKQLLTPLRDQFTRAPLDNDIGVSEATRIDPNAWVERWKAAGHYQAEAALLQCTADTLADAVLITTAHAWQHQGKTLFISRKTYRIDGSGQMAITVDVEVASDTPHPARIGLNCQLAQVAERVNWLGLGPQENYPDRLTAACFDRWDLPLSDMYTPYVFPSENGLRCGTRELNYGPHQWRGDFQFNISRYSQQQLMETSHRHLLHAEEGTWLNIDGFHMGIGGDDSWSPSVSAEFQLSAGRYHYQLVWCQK

In the case of `N[C@@H]1O[C@H](CO)[C@H](O)[C@H](O)[C@H]1O` [beta-D-galactosylamine], the Ki is 225 µM.

As usually defined, the Ki is the equilibrium dissociation constant of an inhibitor or competing ligand from its target.
